Data published in US10413505B1, “Pharmaceutical compositions and methods of using the same” (priority 2017, dated 2019).
Where two headings read alike, the source gives them in different places.

Legend:
[1] = Example 3 urinary pharmacokinetics, normal hepatic function vs hepatic impairment; format: in vivo, human; settings: for CL renal: both sexes, other: intranasal (drug-soaked pledgets in the nasal cavity), 160 mg; for CL renal / dose excreted: human, urine; for dose excreted: other: intranasal, read-out: 0-32 h urinary recovery of unchanged drug as percent of the administered dose
Method: Urine was collected prior to dosing and from 0-2, 2-4, 4-8, 8-12, 12-24, and 24-32 hours after beginning of dose application. […] Urinary pharmacokinetic parameters included total urinary recovery (μg), urinary recovery as a percentage of dose, and CLr.

[2] = Example 2 urinary pharmacokinetics, normal renal function vs severe renal impairment; settings: for CL renal: human, 160 mg; for 0 to 32 hour urinary recovery (geometric mean) / 0 to 32 hour urinary recovery (mean) / 0 to 32 hour urinary recovery (median): metabolites as cocaine equivalents
Method: For the urine analysis of cocaine, BE, and EME, individual urinary recoveries for each analyte were determined over each collection interval as the product of the urine concentration times the urine volume. The total recoveries were determined as the sum of the recoveries over all the intervals. Total urinary recoveries were also expressed as the percentage of the administered dose, after correction for the molecular weight of each analyte. The renal clearances of cocaine, BE, and EME were determined as the urinary recovery (in μg) divided by the plasma AUC over the same time interval (the longest period for which both plasma and urine measurements were available).
Urine was collected prior to dosing and from 0-2, 2-4, 4-8, 8-12, 12-24, and 24-32 hours after the beginning of dose application. […] Testing methods used were consistent with those used by inVentiv Health Clinical Lab, Inc., Miami, Fla., U.S.A. Urinary pharmacokinetic parameters included total urinary recovery (μg), urinary recovery as a percentage of dose, and CLr.

[3] = Normal hepatic function, 0-32 h, single intranasal dose
[4] = normal hepatic function, single intranasal 160 mg cocaine HCl
[5] = subjects with hepatic impairment, 32 hours post administration
[6] = normal renal function, single intranasal 160 mg cocaine HCl
[7] = severe renal impairment, single intranasal 160 mg cocaine HCl

In the case of `COC(=O)[C@H]1[C@@H](OC(=O)c2ccccc2)C[C@@H]2CC[C@H]1N2C` [Cocaine, cocaine, reference compound], the “Urine Recovery as % of Dose, Geomean” value [1, 3] is reported as 0.057 % of Dose, the “Urine Recovery as % of Dose, Mean” value [1, 3] is reported as 0.072 % of Dose and the CL renal ([1]; Impaired hepatic function, Table 26, read-out: CLr Geomean (converted)) is reported as 7.8 mL/min. The CL renal ([1]; Impaired hepatic function, Table 26, read-out: CLr Mean (converted)) was 16.6 mL/min, the CL renal ([1]; Normal hepatic function, Table 26, read-out: CLr Geomean (converted)) was 19.5 mL/min and the CL renal ([1]; Normal hepatic function, Table 26, read-out: CLr Mean (converted)) was 29.8 mL/min. For the same molecule, the CL renal ([1]; hepatically impaired patients, 32 hours from administration, read-out: renal clearance, range observed) was 1.27 to 32 mL/min, the CL renal ([1]; subjects with hepatic impairment, Table 30, read-out: Renal Clearance, geometric mean (converted)) was 7.79 mL/min and the CL renal ([1]; subjects with hepatic impairment, Table 30, read-out: Renal Clearance, mean (converted)) was 16.6 mL/min. It also gave a CL renal ([1]; subjects with hepatic impairment, Table 30, read-out: Renal Clearance, median (converted)) of 15.6 mL/min, a CL renal ([1]; subjects with hepatic impairment, read-out: Renal Clearance, geometric mean (converted)) of 7.79 mL/min and a CL renal ([1]; subjects with hepatic impairment, read-out: Renal Clearance, mean (converted)) of 16.6 mL/min. For the same molecule, the CL renal ([1]; subjects with hepatic impairment, read-out: Renal Clearance, median (converted)) was 15.6 mL/min, the CL renal ([1]; subjects with normal hepatic function, Table 29, read-out: Renal Clearance, geometric mean (converted)) was 19.5 mL/min and the CL renal ([1]; subjects with normal hepatic function, Table 29, read-out: Renal Clearance, mean (converted)) was 29.8 mL/min. It also gave a CL renal ([1]; subjects with normal hepatic function, Table 29, read-out: Renal Clearance, median (converted)) of 22 mL/min, a CL renal ([1]; subjects with normal hepatic function, read-out: Renal Clearance, geometric mean (converted)) of 19.5 mL/min and a CL renal ([1]; subjects with normal hepatic function, read-out: Renal Clearance, mean (converted)) of 29.8 mL/min. It also gave a CL renal ([1]; subjects with normal hepatic function, read-out: Renal Clearance, median (converted)) of 22 mL/min, a dose excreted ([1]; hepatic impairment) of 0.071% and a dose excreted ([1]; normal hepatic function) of 0.057%. For the same molecule, the “0-32 h Urinary Recovery (geometric mean)” value [1, 4] was 81.5 µg, the “0-32 h Urinary Recovery (mean)” value [1, 4] was 102.25 µg and the “0-32 h Urinary Recovery (median)” value [1, 4] was 108.1 µg. For the same molecule, the “0-32 h Urinary Recovery (geometric mean)” value [1, 5] was 101.4 µg, the “0-32 h Urinary Recovery (mean)” value [1, 5] was 204 µg and the “0-32 h Urinary Recovery (median)” value [1, 5] was 193.5 µg. It also gave a CL renal ([2]; both, urine, inhaled or intranasal, Renal Clearance, CLr (geometric mean), normal renal function, single intranasal 160 mg cocaine HCl) of 26.8 mL/min, a CL renal ([2]; both, urine, inhaled or intranasal, Renal Clearance, CLr (geometric mean), severe renal impairment, single intranasal 160 mg cocaine HCl) of 17.3 mL/min and a CL renal ([2]; both, urine, other: intranasal (drug-soaked pledgets in the nasal cavity), renal clearance, range observed, renally impaired patients, 32 hours from administration) of 8.8 to 31.9 mL/min. For the same molecule, the CL renal ([2]; urine and plasma, inhaled or intranasal, CLr (Geometric Least Squares Mean, ANOVA), Impaired renal function (severe), single intranasal 160 mg cocaine HCl) was 17.3 mL/min, the CL renal ([2]; urine and plasma, inhaled or intranasal, CLr (Geometric Least Squares Mean, ANOVA), Normal renal function, single intranasal 160 mg cocaine HCl) was 26.8 mL/min and the CL renal ([2]; urine and plasma, inhaled or intranasal, Renal Clearance (geometric mean), normal renal function, single intranasal 160 mg cocaine HCl) was 26.9 mL/min. The CL renal ([2]; urine and plasma, inhaled or intranasal, Renal Clearance (geometric mean), severe renal impairment, single intranasal 160 mg cocaine HCl) was 17.3 mL/min, the CL renal ([2]; urine and plasma, inhaled or intranasal, Renal Clearance (mean), normal renal function, single intranasal 160 mg cocaine HCl) was 33.3 mL/min and the CL renal ([2]; urine and plasma, inhaled or intranasal, Renal Clearance (mean), severe renal impairment, single intranasal 160 mg cocaine HCl) was 20.4 mL/min. For the same molecule, the CL renal ([2]; urine and plasma, inhaled or intranasal, Renal Clearance (median), normal renal function, single intranasal 160 mg cocaine HCl) was 33.6 mL/min, the CL renal ([2]; urine and plasma, inhaled or intranasal, Renal Clearance (median), severe renal impairment, single intranasal 160 mg cocaine HCl) was 19.6 mL/min and the CL renal ([2]; urine and plasma, inhaled or intranasal, Renal Clearance, CLr (mean), normal renal function, single intranasal 160 mg cocaine HCl) was 33.3 mL/min. For the same molecule, the CL renal ([2]; urine and plasma, inhaled or intranasal, Renal Clearance, CLr (mean), severe renal impairment, single intranasal 160 mg cocaine HCl) was 20.3 mL/min, the CL renal ([2]; urine and plasma, inhaled or intranasal, Renal Clearance, CLr (median), normal renal function, single intranasal 160 mg cocaine HCl) was 33.7 mL/min and the CL renal ([2]; urine and plasma, inhaled or intranasal, Renal Clearance, CLr (median), severe renal impairment, single intranasal 160 mg cocaine HCl) was 19.7 mL/min. For the same molecule, the “0-32 h Urinary Recovery (geometric mean)” value [2, 6] was 122.8 µg, the “0-32 h Urinary Recovery (mean)” value [2, 6] was 164.2 µg and the “0-32 h Urinary Recovery (median)” value [2, 6] was 126.6 µg. For the same molecule, the “0 to 32 hour urinary recovery (geometric mean)” value [2, 6] was 0.086 % of administered dose, the “0 to 32 hour urinary recovery (mean)” value [2, 6] was 0.115 % of administered dose and the “0 to 32 hour urinary recovery (median)” value [2, 6] was 0.089 % of administered dose. For the same molecule, the “CLr, percent lower (reduction) than in normal subjects” value ([2]; severe renal impairment vs normal renal function) was “approximately 36%”, the “CLr Ratio Impaired/Normal” value ([2]; severe renal impairment vs normal renal function, ANOVA) was 64.33% and the “0-32 h Urinary Recovery (geometric mean)” value [2, 7] was 102.7 µg. The “0-32 h Urinary Recovery (mean)” value [2, 7] was 138.5 µg, the “0-32 h Urinary Recovery (median)” value [2, 7] was 89.8 µg and the “0 to 32 hour urinary recovery (geometric mean)” value [2, 7] was 0.072 % of administered dose. For the same molecule, the “0 to 32 hour urinary recovery (mean)” value [2, 7] was 0.097 % of administered dose and the “0 to 32 hour urinary recovery (median)” value [2, 7] was 0.063 % of administered dose.
